Laboratory results reported in patent publication US20080269170A1, “Novel 2,4-Dianilinopyrimidine Derivatives, the Preparation Thereof, Their Use as Medicaments, Pharmaceutical Compositions and, in Particular, as IKK Inhibitors” (sanofi-aventis, priority 2005, published 2008).

melting point	Compound
134 to 139 °C	Cc1cc(Nc2ccnc(Nc3ccc(S(=O)(=O)N(C)C4CCN(Cc5cc[nH]c5)CC4)cc3)n2)ccc1F [Example 111, 4-({4-[(4-Fluoro-3-methylphenyl)amino]-pyrimidin-2-yl}amino)-N-methyl-N-{1-[(1H-pyrrol-3-yl)-methyl]piperidin-4-yl}benzenesulfonamide]
201 to 202 °C	CN(C1CCN(CC(F)(F)F)CC1)S(=O)(=O)c1ccc(Nc2nccc(Nc3ccc(F)cc3)n2)cc1 [Example 112, 4-({4-[(4-Fluorophenyl)amino]pyrimidin-2-yl}amino)-N-methyl-N-[1-(2,2,2-trifluoroethyl)piperidin-4-yl]benzenesulfonamide]
181.5 °C	CN(C1CCSCC1)S(=O)(=O)c1ccc(Nc2nccc(Nc3ccc(F)cc3)n2)cc1 [Example 113, 4-({4-[(4-Fluorophenyl)amino]pyrimidin-2-yl}amino)-N-methyl-N-(tetrahydro-2H-thiopyran-4-yl)-benzenesulfonamide]
162 to 165 °C	CN(C)CCN(C1CCS(=O)(=O)C1)S(=O)(=O)c1ccc(Nc2nccc(Nc3ccc(F)cc3)n2)cc1 (stereo not drawn) [Example 114, N-[2-(Dimethylamino)ethyl]-N-(1,1-dioxido-tetrahydro-3-thienyl)-4-({4-[(4-fluorophenyl)amino]-pyrimidin-2-yl}amino)benzenesulfonamide]
203 °C	CN(C1CCC(=O)CC1)S(=O)(=O)c1ccc(Nc2nccc(Nc3ccc(F)cc3)n2)cc1 [Example 118, 4-({4-[(4-Fluorophenyl)amino]pyrimidin-2-yl}amino)-N-methyl-N-(4-oxocyclohexyl)benzenesulfonamide]
135.2 °C	O=S(=O)(c1ccc(Nc2nccc(Nc3ccc(F)cc3)n2)cc1)N(CCN1CCCC1)[C@H]1CC[C@H](O)CC1 [Example 119, 4-({4-[(4-Fluorophenyl)amino]pyrimidin-2-yl}amino)-N-(trans-4-hydroxycyclohexyl)-N-(2-pyrrolidin-1-ylethyl)benzenesulfonamide]
203 °C	CN(C1CCC(O)CC1)S(=O)(=O)c1ccc(Nc2nccc(Nc3ccc(F)cc3)n2)cc1 (stereo not drawn) [Example 120, 4-({4-[(4-Fluorophenyl)amino]pyrimidin-2-yl}amino)-N-(4-hydroxycyclohexyl)-N-methylbenzene-sulfonamide]
192 °C	CNC1CCC(N(C)S(=O)(=O)c2ccc(Nc3nccc(Nc4ccc(F)cc4)n3)cc2)CC1 (stereo not drawn) [Example 121, 4-({4-[(4-Fluorophenyl)amino]pyrimidin-2-yl}amino)-N-methyl-N-[4-cis(methylamino)cyclohexyl]-benzenesulfonamide]
195 °C	CNC1CCC(N(C)S(=O)(=O)c2ccc(Nc3nccc(Nc4ccc(F)cc4)n3)cc2)CC1 (stereo not drawn) [Example 122, 4-({4-[(4-Fluorophenyl)amino]pyrimidin-2-yl}amino)-N-methyl-N-[4-trans(methylamino)cyclohexyl]-benzenesulfonamide]
194 °C	CCSCCN1CCC(NS(=O)(=O)c2ccc(Nc3nccc(Nc4ccc(F)cc4)n3)cc2)CC1 [Example 125, N-{1-[2-(Ethylthio)ethyl]piperidin-4-yl}-4-({4-[(4-fluorophenyl)amino]pyrimidin-2-yl}amino)-benzenesulfonamide]
183 °C	CS(=O)(=O)CCN1CCC(NS(=O)(=O)c2ccc(Nc3nccc(Nc4ccc(F)cc4)n3)cc2)CC1 [Example 126, 4-({4-[(4-Fluorophenyl)amino]pyrimidin-2-yl}amino)-N-{1-[2-(methylsulfonyl)ethyl]piperidin-4-yl}benzenesulfonamide]
150 °C	COCCN(C1CCS(=O)(=O)C1)S(=O)(=O)c1ccc(Nc2nccc(Nc3ccc(F)cc3)n2)cc1 (stereo not drawn) [Example 127, 4-[[4-[(4-Fluorophenyl)amino]-2-pyrimidin-yl]amino]-N-(2-methoxyethyl)-N-(tetrahydro-1,1-dioxido-3-thienyl)benzenesulfonamide]
167 °C	C=CCN(C1CCN(C)CC1)S(=O)(=O)c1ccc(Nc2nccc(Nc3ccc(F)cc3)n2)cc1 [Example 128, 4-({4-[(4-Fluorophenyl)amino]pyrimidin-2-yl}amino)-N-allyl-N-(1-methylpiperidin-4-yl)benzene-sulfonamide]
114.5 °C	Cc1cc(Nc2ccnc(Nc3ccc(S(=O)(=O)N(C)C4CCN(CCS(C)(=O)=O)CC4)cc3)n2)ccc1F [Example 129, 4-({4-[(4-Fluoro-3-methylphenyl)amino]-pyrimidin-2-yl}amino)-N-methyl-N-{1-[2-(methyl-sulfonyl)ethyl]piperidin-4-yl}benzenesulfonamide]
232 °C	CCCN(C1CCN(C)CC1)S(=O)(=O)c1ccc(Nc2nccc(Nc3ccc(F)cc3)n2)cc1 [Example 130, 4-({4-[(4-Fluorophenyl)amino]pyrimidin-2-yl}amino)-N-propyl-N-(1-methylpiperidin-4-yl)benzene-sulfonamide]
176 to 177 °C	Cc1cc(Nc2ccnc(Nc3ccc(S(=O)(=O)N(C)C4CCN(Cc5nccs5)CC4)cc3)n2)ccc1F [Example 131, 4-({4-[(4-Fluoro-3-methylphenyl)amino]-pyrimidin-2-yl}amino)-N-methyl-N-{1-[(1-thiazol-2-yl)-methyl]piperidin-4-yl}benzenesulfonamide]
196 to 197 °C	Cc1cc(Nc2ccnc(Nc3ccc(S(=O)(=O)N(C)C4CCN(Cc5cncs5)CC4)cc3)n2)ccc1F [Example 132, 4-({4-[(4-Fluoro-3-methylphenyl)amino]-pyrimidin-2-yl}amino)-N-methyl-N-{1-[(1-thiazol-5-yl)-methyl]piperidin-4-yl}benzenesulfonamide]
224 °C	Cc1cc(Nc2ccnc(Nc3ccc(S(=O)(=O)N(C)C4CCN(Cc5cn[nH]c5)CC4)cc3)n2)ccc1F [Example 134, 4-({4-[(4-Fluoro-3-methylphenyl)amino]-pyrimidin-2-yl}amino)-N-methyl-N-{1-[(1H-pyrazol-4-yl)methyl]piperidin-4-yl}benzenesulfonamide]
125 to 150 °C	Cc1cc(Nc2ccnc(Nc3ccc(S(=O)(=O)N(C)C4CCN(Cc5cnn(C)c5)CC4)cc3)n2)ccc1F [Example 135, 4-({4-[(4-Fluoro-3-methylphenyl)amino]-pyrimidin-2-yl}amino)-N-methyl-N-{1-[(1-methyl-1H-pyrazol-4-yl)methyl]piperidin-4-yl}benzenesulfonamide]
130 °C	Cc1cc(CN2CCC(N(C)S(=O)(=O)c3ccc(Nc4nccc(Nc5ccc(F)c(C)c5)n4)cc3)CC2)[nH]n1 [Example 136, 4-({4-[(4-Fluoro-3-methylphenyl)amino]-pyrimidin-2-yl}amino)-N-methyl-N-{1-[(5-methyl-2H-pyrazol-3-yl)methyl]piperidin-4-yl}benzenesulfonamide]
164 to 165 °C	Cc1cc(Nc2ccnc(Nc3ccc(S(=O)(=O)N(C)C4CCC(F)(F)CC4)cc3)n2)ccc1F [Example 137, N-(4,4-Difluorocyclohexyl)-4-[4-(4-fluoro-3-methylphenylamino)pyrimidin-2-ylamino]-N-methyl-benzenesulfonamide]
172 to 173 °C	Cc1cc(CN2CCC(N(C)S(=O)(=O)c3ccc(Nc4nccc(Nc5ccc(F)c(C)c5)n4)cc3)CC2)no1 [Example 138, 4-({4-[(4-Fluoro-3-methylphenyl)amino]-pyrimidin-2-yl}amino)-N-methyl-N-{1-[(5-methylisoxazol-3-yl)methyl]piperidin-4-yl}benzenesulfonamide]
188 °C	Cc1cc(Nc2ccnc(Nc3ccc(S(=O)(=O)N(C)C4CCCN(C)C4)cc3)n2)ccc1F (stereo not drawn) [Example 139, 4-({4-[(4-Fluoro-3-methylphenyl)amino]-pyrimidin-2-yl}amino)-N-methyl-N-(1-methylpiperidin-3-yl)benzenesulfonamide]
222 °C	CN(C)C1CCC(N(C)S(=O)(=O)c2ccc(Nc3nccc(Nc4ccc(F)cc4)n3)cc2)CC1 (stereo not drawn) [Example 140, 4-({4-[(4-Fluorophenyl)amino]pyrimidin-2-yl}amino)-N-methyl-N-[4-cis(dimethylamino)cyclohexyl]-benzenesulfonamide]
218 °C	CN(C)C1CCC(N(C)S(=O)(=O)c2ccc(Nc3nccc(Nc4ccc(F)cc4)n3)cc2)CC1 (stereo not drawn) [Example 141, 4-({4-[(4-Fluorophenyl)amino]pyrimidin-2-yl}amino)-N-methyl-N-[4-trans(dimethylamino)cyclo-hexyl]benzenesulfonamide]
188 °C	CCNC1CCC(N(C)S(=O)(=O)c2ccc(Nc3nccc(Nc4ccc(F)cc4)n3)cc2)CC1 (stereo not drawn) [Example 142, 4-({4-[(4-Fluorophenyl)amino]pyrimidin-2-yl}amino)-N-methyl-N-[4-cis(ethylamino)cyclohexyl]-benzenesulfonamide]
178 °C	CCNC1CCC(N(C)S(=O)(=O)c2ccc(Nc3nccc(Nc4ccc(F)cc4)n3)cc2)CC1 (stereo not drawn) [Example 143, 4-({4-[(4-Fluorophenyl)amino]pyrimidin-2-yl}amino)-N-methyl-N-[4-trans(ethylamino)cyclohexyl]-benzenesulfonamide]
146 °C	CSCCNC1CCC(N(C)S(=O)(=O)c2ccc(Nc3nccc(Nc4ccc(F)cc4)n3)cc2)CC1 (stereo not drawn) [Example 144, 4-({4-[(4-Fluorophenyl)amino]pyrimidin-2-yl}amino)-N-methyl-N-[4-cis(2-methylsulfanylethyl-amino)cyclohexyl]benzenesulfonamide]
171 °C	CSCCNC1CCC(N(C)S(=O)(=O)c2ccc(Nc3nccc(Nc4ccc(F)cc4)n3)cc2)CC1 (stereo not drawn) [Example 145, 4-({4-[(4-Fluorophenyl)amino]pyrimidin-2-yl}amino)-N-methyl-N-[4-trans(2-methylsulfanylethyl-amino)cyclohexyl]benzenesulfonamide]
189 °C	CNC1CCC(N(CCN2CCCC2)S(=O)(=O)c2ccc(Nc3nccc(Nc4ccc(F)cc4)n3)cc2)CC1 (stereo not drawn) [Example 146, 4-({4-[(4-Fluorophenyl)amino]pyrimidin-2-yl}amino)-N-(4-cis(methylamino)cyclohexyl)-N-(2-pyrrolidin-1-ylethyl)benzenesulfonamide]
